According to patent publication US7439271B2, “Reduction of hair growth” (The Gillette Company, priority 2001, dated 2008):

What was measured:
flank organ hair growth = experiment: Golden Syrian hamster assay (flank organ hair mass); type: in vivo; details: topical, thirteen applications; for % Inhibition (hair mass reduction): vs vehicle treated side
Text: Male intact Golden Syrian hamsters are considered acceptable models for human beard hair growth in that they display oval shaped flank organs, one on each side, each about 8 mm. in major diameter. These organs produce fine light colored hair typical of the animal pelage found on the body. In response to androgens the flank organs produce dark coarse hair similar to male human beard hair. To evaluate the effectiveness of a composition in reducing hair growth, the flank organs of each of a group of hamsters are depilated by applying a thioglycolate based chemical depilatory (Surgex) and/or shaved. To one organ of each animal 10 μl. of vehicle alone once a day is applied, while to the other organ of each animal an equal amount of vehicle containing the compound under evaluation is applied. After thirteen applications (one application per day for five days a week), the flank organs are shaved and the amount of recovered hair (hair mass) from each is weighed. Percent-reduction of hair growth is calculated by subtracting the hair mass (mg) value of the test compound treated side from the hair mass value of the vehicle treated side; the delta value obtained is then divided by the hair mass value of the vehicle treated side, and the resultant number is multiplied by 100.
The above-described assay will be referred to herein as the “Golden Syrian hamster” assay. Preferred compositions provide a reduction in hair growth of at least about 15% and more preferably at least about 20%, when tested in the Golden Syrian hamster assay. Compositions described in Example 1 (above) were tested in the Golden Syrian hamster assay. […] AZT, a well-characterized inhibitor of reverse transcriptase, inhibits telomerase by blocking the […] of the enzyme.

human hair follicles = experiment: Human hair follicle growth assay; type: cell-based; details: day 0 to day 6
Text: Tissue source—Human skin was obtained from a plastic surgeon as a by-product of face-lift procedures. Immediately after removal, the skin was placed in Williams E medium containing antibiotics and refrigerated. The Williams E medium is a commercially obtained medium which has been formulated with essential nutrients for maintaining viability of tissues or cells such as of hair follicle in an in-vitro environment.
Hair Follicle Isolation and Culture—Human hair follicles in growth phase (anagen) were isolated from face-lift tissue under a dissecting scope using a scalpel and watchmakers forceps. The skin was sliced into thin strips exposing 2-3 rows of follicles that could readily be dissected. Follicles were placed into 0.5 ml Williams E medium supplemented with 2 mM L-glutamine, 10 μg/ml insulin, 100 ng/ml hydrocortisone, 100 units penicillin, 0.1 mg/ml streptomycin and 0.25 μg/ml amphotericin B. The follicles were incubated in 24 well plates (1 follicle/well) at 37° C. in an atmosphere of 5% CO2 and 95% air. Hair follicles were videorecorded in the 24-well plates under the dissecting scope under a power of 20×. Typically, hair follicle lengths were measured on day 0 (day follicles were placed in culture) and again on day 7. When testing compounds, the compound was included in the culture medium from time 0 and remained in the medium throughout the course of the experiment.
In this system follicle cells differentiate to form hair fiber and increase in length at a rate not dissimilar from that of humans, in vivo. Typically, hair fiber from these in-vitro follicles grow about 0.3 mm/day. […] This model of human hair growth is capable of identifying inhibitors of hair growth. The selective telomerase inhibitors -I, -IV and -V were obtained from Calbiochem, La Jolla, Calif. The data in Tables II-VI below show dose-dependent inhibition of human hair follicle growth by various compounds.

CC1COc2c(N3CCN(C)CC3)c(F)cc3c(=O)c(C(=O)O)cn1c23 (centres unmarked) [Ofloxacin, ofloxacin]
Left (mg): hair mass for vehicle with test compound (flank organ hair growth; dose 5%): 1.56 ± .24 mg
% Inhibition (hair mass reduction) (flank organ hair growth; dose 5%): 39 ± 7%
Length Increase (mm) (human hair follicles; 0.01 μM): 1.51 ± .24 mm
Length Increase (mm) (human hair follicles; 0.1 μM): 1.16 ± .12 mm
Length Increase (mm) (human hair follicles; 1.0 μM, separate control 1.40 ± .17 mm): 0.43 ± .11 mm
Length Increase (mm) (human hair follicles; 100 μM): 1.16 ± .12 mm
inhibition at 0.01 µM (human hair follicles; Homo sapiens, 0.01 μM): 10 ± 14%
inhibition at 0.1 µM (human hair follicles; Homo sapiens, 0.1 μM): 30 ± 7%
inhibition at 1 µM (human hair follicles; Homo sapiens, 1.0 μM, separate control 1.40 ± .17 mm): 69 ± 8%
inhibition at 100 µM (human hair follicles; Homo sapiens, 100 μM): 31 ± 7%

C[n+]1ccc(-c2c3nc(c(-c4cc[n+](C)cc4)c4ccc([nH]4)c(-c4cc[n+](C)cc4)c4nc(c(-c5cc[n+](C)cc5)c5ccc2[nH]5)C=C4)C=C3)cc1 [TMPyP4, meso-5,10,15,20-tetrakis-(N-methyl-4-pyridy)porphine]
Left (mg): hair mass for vehicle with test compound (flank organ hair growth; dose 1%): 1.73 ± .23 mg
% Inhibition (hair mass reduction) (flank organ hair growth; dose 1%): 28 ± 8%
% Inhibition of human hair growth (human hair follicles; 73 μM): 52 ± 9%
Length Increase (mm) (human hair follicles; 73 μM): .468 ± .09 mm

O=C1c2ccc3c4ccc5c6c(ccc(c7ccc(c2c37)C(=O)N1CCN1CCCCC1)c64)C(=O)N(CCN1CCCCC1)C5=O [Telomerase Inhibitor IV, N,N′-bis[2-(1-piperidino)ethyl]-3,4,9,10-perylenetetracarboxylic diimide]
% Inhibition of human hair growth (human hair follicles; 10 μM): 10 ± 10%
Length Increase (mm) (human hair follicles; 10 μM): 1.39 ± .16 mm
% Inhibition of human hair growth (human hair follicles; 100 μM): 48 ± 8%
Length Increase (mm) (human hair follicles; 100 μM): 0.80 ± .12 mm

C[N+]1(CCC(=O)Nc2ccc3c(c2)C(=O)c2ccc(NC(=O)CC[N+]4(C)CCCCC4CO)cc2C3=O)CCCCC1CO.[I-].[I-] (centres unmarked) [Telomerase Inhibitor I]
% Inhibition of human hair growth (human hair follicles; 10 μM): 34 ± 6%
Length Increase (mm) (human hair follicles; 10 μM): 1.18 ± .10 mm
% Inhibition of human hair growth (human hair follicles; 100 μM): 84 ± 5%
Length Increase (mm) (human hair follicles; 100 μM): .286 ± .09 mm

O=C(CCN1CCCCC1)Nc1ccc2c(c1)C(=O)c1ccc(NC(=O)CCN3CCCCC3)cc1C2=O [Telomerase Inhibitor V, 2,6-bis[3-(N-piperidino)propionamido]anthracene-9,10-dione]
% Inhibition of human hair growth (human hair follicles; 10 μM): 14 ± 8%
Length Increase (mm) (human hair follicles; 10 μM): 1.32 ± .13 mm
% Inhibition of human hair growth (human hair follicles; 100 μM): 68 ± 19%
Length Increase (mm) (human hair follicles; 100 μM): 0.25 ± .30 mm
